Laboratory results from US11299487B2, “Compounds and compositions as modulators of TLR signaling” (Neuropore Therapies, Inc., priority 2019, dated 2022).

Experiments:
human TLR2 [1] = molecular target: T1, human TLR2 (Homo sapiens, UniProt O60603); assay: HEK-Blue hTLR2 antagonism assay (SEAP reporter) with agonist Pam2CSK4 (TLR2/6 agonist); format: cell-based; conditions: HEK-Blue hTLR2 cells, ~3×EC50 Pam2CSK4, 18 h, SEAP OD 655 nm, 8-point dilutions
T1 construct: host or cells: HEK-Blue hTLR2 (HEK-293)
T1 sequence (O60603 21-784): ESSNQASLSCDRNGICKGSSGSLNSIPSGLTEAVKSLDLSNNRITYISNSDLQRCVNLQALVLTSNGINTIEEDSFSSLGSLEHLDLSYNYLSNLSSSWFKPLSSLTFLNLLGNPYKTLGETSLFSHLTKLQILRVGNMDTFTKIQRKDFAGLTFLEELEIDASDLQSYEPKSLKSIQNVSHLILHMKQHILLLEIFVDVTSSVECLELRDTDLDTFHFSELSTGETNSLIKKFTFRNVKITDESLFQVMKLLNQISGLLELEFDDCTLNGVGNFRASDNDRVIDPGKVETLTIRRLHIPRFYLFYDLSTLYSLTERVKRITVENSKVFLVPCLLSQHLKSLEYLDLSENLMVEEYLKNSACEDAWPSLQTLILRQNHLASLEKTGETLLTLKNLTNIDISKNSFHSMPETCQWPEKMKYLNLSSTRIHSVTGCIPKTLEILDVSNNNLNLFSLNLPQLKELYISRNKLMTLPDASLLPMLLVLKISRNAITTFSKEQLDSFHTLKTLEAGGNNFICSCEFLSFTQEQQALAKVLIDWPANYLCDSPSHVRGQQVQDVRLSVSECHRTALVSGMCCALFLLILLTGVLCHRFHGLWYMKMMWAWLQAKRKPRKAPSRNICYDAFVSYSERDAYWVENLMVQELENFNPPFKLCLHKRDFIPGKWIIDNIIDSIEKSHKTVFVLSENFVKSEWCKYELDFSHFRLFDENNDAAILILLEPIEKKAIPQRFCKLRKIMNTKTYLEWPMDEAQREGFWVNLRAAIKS
Experimental: (§1) Synthetic diacylated lipoprotein (Pam2CSK4, TLR2/6 agonist) and synthetic triacylated lipoprotein (Pam3CSK4, TLR1/2 agonist) were obtained from InvivoGen and were dissolved in endotoxin-free water to a concentration 1 mg/mL, vortexed until complete solubilization, and stored in aliquots at −20° C. Prior to addition to cells, an aliquot of the dissolved ligand was vortexed shortly and then was diluted in medium to 25 ng/mL Pam2CSK4 or 1000 ng/mL Pam3CSK4.
(§2) Test compounds were solubilized fresh to 10-20 mM stocks in DMSO and sonicated for 5-10 minutes in a water bath sonicator. Serial dilutions were prepared in DMSO, and then diluted in medium. The final concentration of DMSO used in the assay was 1%.
(§3) HEK-Blue hTLR2 reporter cells (InvivoGen) are HEK-293 cells stably expressing both the human TLR2 gene and a secreted embryonic alkaline phosphatase (SEAP) reporter construct downstream of NFκB promotor sites. HEK-Blue hTLR2 reporters were cultured according to manufacturer's protocol using Dulbecco's Modified Eagle Medium (DMEM; Gibco) containing 1× GlutaMax (Gibco), 10% heat-inactivated Fetal Bovine Serum (Gibco), Pen-Strep (50 U/mL penicillin, 50 μg/mL streptomycin, Gibco), 100 μg/mL Normocin (InvivoGen), and the selective antibiotic, 1×HEK-Blue Selection (InvivoGen). Quanti-Blue reagent (InvivoGen) for detection and quantification of secreted alkaline phosphatase was dissolved in 100 mL of endotoxin-free water, warmed to 37° C. for 30 minutes and then filtered using a 0.2 μm membrane.
(§4) On day 1, 50 μL of each test compound dilution in duplicates or a vehicle control was added to each well of a 96-well plate followed by addition of 150 μL of HEK-Blue hTLR2 cell suspension (1×10^5 cells/well) and incubated at 37° C./5% CO2 for 2 h. Next, 50 μL of an approximate 3×EC50 concentration of each agonist (Pam2CSK4 or Pam3CSK4) was added to the wells containing test compounds or the vehicle control. The plates were then incubated at 37° C./5% CO2 for 18 h. For each assay run, non-treated HEK-Blue hTLR2 cells were treated with serial dilutions of agonists to determine EC50 values for the respective run.
(§5) On day 2, secreted alkaline phosphatase (SEAP) activity was detected in cell culture supernatants. In brief, 20 μL was collected from each well and transferred to a 96-well plate. Next, 200 μL of Quanti-Blue detection reagent was added to each well. Plates were incubated at room temperature for 15 min. and SEAP activity was assessed by spectrophotometer OD reading at 655 nm. […] IC50 values were calculated based on 8-point dilutions for each compound.

human TLR2 [2] = molecular target: T1, human TLR2; assay: HEK-Blue hTLR2 antagonism assay (SEAP reporter) with agonist Pam3CSK4 (TLR1/2 agonist); format: cell-based; conditions: HEK-Blue hTLR2 cells, ~3×EC50 Pam3CSK4, 18 h, SEAP OD 655 nm, 8-point dilutions
Experimental: as §1, §2, §3, §4, §5

Structure (SMILES): Oc1c(F)cc(-c2cnn(-c3ccc(N4CCCC4)cc3)c2)cc1/C=N/c1ccccc1 [Compound A39, (E)-2-fluoro-6-((phenylimino)methyl)-4-(1-(4-(pyrrolidin-1-yl)phenyl)-1H-pyrazol-4-yl)phenol]
- IC50 (human TLR2 [1]; Table A): 0.5 µM
- IC50 (human TLR2 [2]; Table A): 0.5 µM

Structure (SMILES): O=Cc1cc(-c2cnn(-c3ccc(N4CCCCC4)cc3)c2)cc(F)c1O [Compound A20, 3-fluoro-2-hydroxy-5-(1-(4-(piperidin-1-yl)phenyl)-1H-pyrazol-4-yl)benzaldehyde]
- IC50 (human TLR2 [1]; Table A): 0.5 µM
- IC50 (human TLR2 [2]; Table A): 0.2 µM

Structure (SMILES): O=Cc1cc(C(=O)Nc2ccc(N3CCC4(CC4)C3)cc2)cc(F)c1O [Compound B79, N-(4-(5-azaspiro[2.4]heptan-5-yl)phenyl)-3-fluoro-5-formyl-4-hydroxybenzamide]
- IC50 (human TLR2 [1]; Table B): 4.1 µM
- IC50 (human TLR2 [2]; Table B): 1.4 µM

Structure (SMILES): O=Cc1cc(-c2ccn(-c3cccc(N4CCCC4)c3)n2)cc(F)c1O [Compound A30, 3-fluoro-2-hydroxy-5-(1-(3-(pyrrolidin-1-yl)phenyl)-1H-pyrazol-3-yl)benzaldehyde]
- IC50 (human TLR2 [1]; Table A): 2.1 µM
- IC50 (human TLR2 [2]; Table A): 2.2 µM

Structure (SMILES): Oc1c(F)cc(-c2cnn(-c3ccc(N4CCCC4)cc3)c2)cc1/C=N/N1CCN(C2CC2)CC1 [Compound A36, (E)-2-(((4-cyclopropylpiperazin-1-yl)imino)methyl)-6-fluoro-4-(1-(4-(pyrrolidin-1-yl)phenyl)-1H-pyrazol-4-yl)phenol]
- IC50 (human TLR2 [1]; Table A): > 100 µM
- IC50 (human TLR2 [2]; Table A): > 100 µM

Structure (SMILES): CC1(C)CCN(c2ccc(-c3csc(-c4cc(F)c(O)c(C=O)c4)n3)cc2)C1 [Compound A105, 5-(4-(4-(3,3-dimethylpyrrolidin-1-yl)phenyl)thiazol-2-yl)-3-fluoro-2-hydroxybenzaldehyde]
- IC50 (human TLR2 [1]; Table A): 1.9 µM
- IC50 (human TLR2 [2]; Table A): 0.5 µM

Structure (SMILES): CN(CC(C)(C)C)c1ccc(NC(=O)c2cc(F)c(O)c(C=O)c2)cc1 [Compound B94, 3-fluoro-5-formyl-4-hydroxy-N-(4-(methyl(neopentyl)amino)phenyl)benzamide]
- IC50 (human TLR2 [1]; Table B): 1 µM
- IC50 (human TLR2 [2]; Table B): 0.9 µM

Structure (SMILES): O=Cc1cc(C(=O)Nc2ccc(N3CCCN(C4CC4)CC3)cc2)cc(F)c1O [Compound B70, N-(4-(4-cyclopropyl-1,4-diazepan-1-yl)phenyl)-3-fluoro-5-formyl-4-hydroxybenzamide]
- IC50 (human TLR2 [1]; Table B): 11.5 µM
- IC50 (human TLR2 [2]; Table B): 6.5 µM

Structure (SMILES): Cc1nc(-c2ccc(N3CCCC3)cc2)sc1-c1cc(F)c(O)c(C=O)c1 [Compound A98, 3-fluoro-2-hydroxy-5-(4-methyl-2-(4-(pyrrolidin-1-yl)phenyl)thiazol-5-yl)benzaldehyde]
- IC50 (human TLR2 [1]; Table A): 1.4 µM
- IC50 (human TLR2 [2]; Table A): 1 µM

Structure (SMILES): O=Cc1cc(-c2cnc(-c3ccc(N4CC5(CCC5)C4)cc3)s2)cc(F)c1O [Compound A116, 5-(2-(4-(2-azaspiro[3.3]heptan-2-yl)phenyl)thiazol-5-yl)-3-fluoro-2-hydroxybenzaldehyde]
- IC50 (human TLR2 [1]; Table A): 1.3 µM
- IC50 (human TLR2 [2]; Table A): 0.6 µM

Structure (SMILES): O=Cc1cc(-c2nc(-c3ccccc3)co2)cc(F)c1O [Compound A90, 3-fluoro-2-hydroxy-5-(4-phenyloxazol-2-yl)benzaldehyde]
- IC50 (human TLR2 [1]; Table A): 6.5 µM
- IC50 (human TLR2 [2]; Table A): 4.5 µM

Structure (SMILES): O=Cc1cc(-c2ccc(-c3ccc(N4CCCC4)cc3)s2)cc(F)c1O [Compound A50, 3-fluoro-2-hydroxy-5-(5-(4-(pyrrolidin-1-yl)phenyl)thiophen-2-yl)benzaldehyde]
- IC50 (human TLR2 [1]; Table A): 4.1 µM
- IC50 (human TLR2 [2]; Table A): 0.9 µM

Structure (SMILES): Cc1cc(-c2cnn(-c3ccccc3)c2)cc(Cl)c1O [Compound A17, 2-chloro-6-methyl-4-(1-phenyl-1H-pyrazol-4-yl)phenol]
- IC50 (human TLR2 [1]; Table A): 52.6 µM
- IC50 (human TLR2 [2]; Table A): 43.4 µM

Structure (SMILES): COc1cc(-c2cnn(-c3cccc(Cl)c3)c2)cc(C=O)c1O [Compound A3, 5-(1-(3-chlorophenyl)-1H-pyrazol-4-yl)-2-hydroxy-3-methoxybenzaldehyde]
- IC50 (human TLR2 [1]; Table A): 9.9 µM
- IC50 (human TLR2 [2]; Table A): 8.3 µM

Structure (SMILES): O=Cc1cc(-c2csc(-c3ccc(N4CCCC4)nc3)n2)cc(F)c1O [Compound A123, 3-fluoro-2-hydroxy-5-(2-(6-(pyrrolidin-1-yl)pyridin-3-yl)thiazol-4-yl)benzaldehyde]
- IC50 (human TLR2 [1]; Table A): 1.7 µM
- IC50 (human TLR2 [2]; Table A): 1.5 µM

Structure (SMILES): CC(=O)N/N=C/c1cc(-c2cnn(-c3ccc(N4CCCC4)cc3)c2)cc(F)c1O [Compound A38, N′-(3-fluoro-2-hydroxy-5-(1-(4-(pyrrolidin-1-yl)phenyl)-1H-pyrazol-4-yl)benzylidene)acetohydrazide]
- IC50 (human TLR2 [1]; Table A): 0.4 µM
- IC50 (human TLR2 [2]; Table A): 0.4 µM

Structure (SMILES): O=Cc1cc(NC(=O)Nc2ccccc2)cc(F)c1O [Compound B10, 1-(3-fluoro-5-formyl-4-hydroxyphenyl)-3-phenylurea]
- IC50 (human TLR2 [1]; Table B): 11.6 µM
- IC50 (human TLR2 [2]; Table B): 7.2 µM

Structure (SMILES): O=Cc1cc(C(=O)Nc2ccc(N3CC4(CC4)CC3=O)cc2)cc(F)c1O [Compound B78, 3-fluoro-5-formyl-4-hydroxy-N-(4-(6-oxo-5-azaspiro[2.4]heptan-5-yl)phenyl)benzamide]
- IC50 (human TLR2 [1]; Table B): 34.4 µM
- IC50 (human TLR2 [2]; Table B): 18.5 µM

Structure (SMILES): O=Cc1cc(-c2nsc(-c3cccc(N4CCCC4)c3)n2)cc(F)c1O [Compound A125, 3-fluoro-2-hydroxy-5-(5-(3-(pyrrolidin-1-yl)phenyl)-1,2,4-thiadiazol-3-yl)benzaldehyde]
- IC50 (human TLR2 [1]; Table A): 3.3 µM
- IC50 (human TLR2 [2]; Table A): 2 µM

Structure (SMILES): O=Cc1cc(C(=O)Nc2ccc(N3CCN(C4CC4)CC3)cc2)cc(F)c1O [Compound B69, N-(4-(4-cyclopropylpiperazin-1-yl)phenyl)-3-fluoro-5-formyl-4-hydroxybenzamide]
- IC50 (human TLR2 [1]; Table B): 7.6 µM
- IC50 (human TLR2 [2]; Table B): 2.3 µM

Structure (SMILES): O=Cc1cc(C(=O)Nc2ccc(N3Cc4ccccc4C3)nc2)cc(F)c1O [Compound B86, 3-fluoro-5-formyl-4-hydroxy-N-(6-(isoindolin-2-yl)pyridin-3-yl)benzamide]
- IC50 (human TLR2 [1]; Table B): 4.3 µM
- IC50 (human TLR2 [2]; Table B): 1.8 µM

Structure (SMILES): O=Cc1cc(-c2cnn(-c3cccc(N4CCOCC4)c3)c2)cc(F)c1O [Compound A24, 3-fluoro-2-hydroxy-5-(1-(3-morpholinophenyl)-1H-pyrazol-4-yl)benzaldehyde]
- IC50 (human TLR2 [1]; Table A): 4.3 µM
- IC50 (human TLR2 [2]; Table A): 5.4 µM

Structure (SMILES): O=Cc1cc(C(=O)Nc2ccc(N3CCCC3)nc2)cc(F)c1O [Compound B61, 3-fluoro-5-formyl-4-hydroxy-N-(6-(pyrrolidin-1-yl)pyridin-3-yl)benzamide]
- IC50 (human TLR2 [1]; Table B): 16.4 µM
- IC50 (human TLR2 [2]; Table B): 9.3 µM

Structure (SMILES): O=Cc1cc(C(=O)Nc2ccc(N3CCN(c4ccccc4)CC3)cc2)cc(F)c1O [Compound B83, 3-fluoro-5-formyl-4-hydroxy-N-(4-(4-phenylpiperazin-1-yl)phenyl)benzamide]
- IC50 (human TLR2 [1]; Table B): 1 µM
- IC50 (human TLR2 [2]; Table B): 0.3 µM

Structure (SMILES): O=Cc1cc(C(=O)Nc2ccc(C(F)(F)F)cc2)cc(F)c1O [Compound B13, 3-fluoro-5-formyl-4-hydroxy-N-(4-(trifluoromethyl)phenyl)benzamide]
- IC50 (human TLR2 [1]; Table B): 1.9 µM
- IC50 (human TLR2 [2]; Table B): 1.9 µM

Structure (SMILES): O=Cc1cc(-c2ccn(-c3ccc(N4CCOCC4)cc3)n2)cc(F)c1O [Compound A29, 3-fluoro-2-hydroxy-5-(1-(4-morpholinophenyl)-1H-pyrazol-3-yl)benzaldehyde]
- IC50 (human TLR2 [1]; Table A): 6.4 µM
- IC50 (human TLR2 [2]; Table A): 7.6 µM

Structure (SMILES): O=Cc1cc(-c2csc(-c3cccc(N4CCCC4)c3)n2)cc(F)c1O [Compound A124, 3-fluoro-2-hydroxy-5-(2-(3-(pyrrolidin-1-yl)phenyl)thiazol-4-yl)benzaldehyde]
- IC50 (human TLR2 [1]; Table A): 1.7 µM
- IC50 (human TLR2 [2]; Table A): 1 µM

Structure (SMILES): Oc1c(F)cc(-c2cnn(-c3ccccc3)c2)cc1F [Compound A18, 2,6-difluoro-4-(1-phenyl-1H-pyrazol-4-yl)phenol]
- IC50 (human TLR2 [1]; Table A): > 100 µM
- IC50 (human TLR2 [2]; Table A): > 100 µM

Structure (SMILES): O=Cc1cc(-c2ccn(-c3ccc(N4CCCCC4)cc3)n2)cc(F)c1O [Compound A28, 3-fluoro-2-hydroxy-5-(1-(4-(piperidin-1-yl)phenyl)-1H-pyrazol-3-yl)benzaldehyde]
- IC50 (human TLR2 [1]; Table A): 0.9 µM
- IC50 (human TLR2 [2]; Table A): 0.8 µM

Structure (SMILES): O=Cc1cc(-c2csc(-c3ccc(N4C[C@H]5CCC[C@H]5C4)cc3)n2)cc(F)c1O [Compound A97, 3-fluoro-5-(2-(4-((3aR,6aS)-hexahydrocyclopenta[c]pyrrol-2(1H)-yl)phenyl)thiazol-4-yl)-2-hydroxybenzaldehyde]
- IC50 (human TLR2 [1]; Table A): 0.9 µM
- IC50 (human TLR2 [2]; Table A): 0.3 µM
